For one assay, the target named is PI3K-alpha (Homo sapiens, UniProt P42336). Put plainly: PI3K-alpha fluorescence polarization assay. It is filed as biochemical. Particulars: read-out: PI3Kα Avg. IC50.
A further assay concerns the target PI3K-gamma (Homo sapiens, UniProt P48736). Put plainly: PI3K-gamma fluorescence polarization assay. It counts as biochemical. As to conditions: PI3Kγ Avg. IC50. Here is the method: PI3K-Alpha, PI3K-Beta, PI3K-Gamma, and PI3K-delta Fluorescence Polarization Assay Protocols
PI3-Kinase reactions were performed in 5 mM HEPES, pH 7, 2.5 mM MgCl2, and 25 μM ATP, with diC8-PI(4,5)P2 (Echelon, Salt Lake City Utah) as substrate. Nunc 384-well black polypropylene fluorescent plates were used for PI3K assays. Reactions were quenched by the addition of EDTA to a final concentration of 10 mM. Final reaction volumes were 10 μl. For evaluation of PI3K inhibitors, 5 ng of enzyme (PI3K-alpha, beta, gamma, or delta) and 2.5 μM of substrate was used per […] reaction volume, and inhibitor concentrations ranged from 100 μM to 20 μM; the final level of DMSO in reactions never exceeded 2%. Reactions were allowed to proceed for one hour at 25° C. After 1 hour, GST-tagged GRP1 (general receptor for phosphoinositides) PH domain fusion protein was added to a final concentration of 100 nM, and BODIPY-TMRI(1,3,4,5)P4 (Echelon) was also added to a final concentration of 5 nM. Final sample volumes were 25 μl with a final DMSO concentration of 0.8%. Assay Plates were read on Perkin-Elmer Envision plate readers with appropriate filters for Tamra [BODIPY-TMRI(1,3,4,5)P4]. Data obtained were used to calculate enzymatic activity and enzyme inhibition by inhibitor compounds.

pIC50: −log10 of the molar value.

Sequence of PI3K-alpha (P42336 whole entry, species assumed): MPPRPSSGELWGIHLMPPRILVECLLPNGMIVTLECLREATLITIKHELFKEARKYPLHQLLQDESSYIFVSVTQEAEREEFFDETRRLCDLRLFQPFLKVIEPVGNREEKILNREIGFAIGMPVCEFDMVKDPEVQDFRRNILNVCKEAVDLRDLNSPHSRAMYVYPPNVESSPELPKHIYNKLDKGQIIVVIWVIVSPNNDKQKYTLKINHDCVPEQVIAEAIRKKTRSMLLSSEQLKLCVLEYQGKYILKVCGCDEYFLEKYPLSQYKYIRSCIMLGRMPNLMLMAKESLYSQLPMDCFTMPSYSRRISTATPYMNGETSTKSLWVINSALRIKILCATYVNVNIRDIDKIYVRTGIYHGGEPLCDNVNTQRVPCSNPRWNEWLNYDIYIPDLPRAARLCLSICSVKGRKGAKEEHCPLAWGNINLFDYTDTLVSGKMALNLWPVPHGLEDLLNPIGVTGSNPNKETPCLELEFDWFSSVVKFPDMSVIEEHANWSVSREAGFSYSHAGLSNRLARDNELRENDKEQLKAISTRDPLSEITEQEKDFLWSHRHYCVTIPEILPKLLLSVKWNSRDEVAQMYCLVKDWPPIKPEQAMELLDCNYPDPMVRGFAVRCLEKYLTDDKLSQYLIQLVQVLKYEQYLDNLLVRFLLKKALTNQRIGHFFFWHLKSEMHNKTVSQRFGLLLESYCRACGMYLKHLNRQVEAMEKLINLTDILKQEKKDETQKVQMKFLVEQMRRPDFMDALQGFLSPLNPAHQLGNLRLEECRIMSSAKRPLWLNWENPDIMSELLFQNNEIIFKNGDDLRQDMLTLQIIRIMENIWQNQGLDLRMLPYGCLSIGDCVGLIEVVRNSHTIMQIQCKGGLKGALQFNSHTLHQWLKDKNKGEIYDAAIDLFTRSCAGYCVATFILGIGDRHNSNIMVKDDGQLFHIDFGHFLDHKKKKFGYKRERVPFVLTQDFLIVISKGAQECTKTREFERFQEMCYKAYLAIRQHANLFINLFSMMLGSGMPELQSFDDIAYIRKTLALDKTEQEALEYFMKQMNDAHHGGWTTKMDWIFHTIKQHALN
Sequence of PI3K-alpha (P27986 whole entry partner, species assumed): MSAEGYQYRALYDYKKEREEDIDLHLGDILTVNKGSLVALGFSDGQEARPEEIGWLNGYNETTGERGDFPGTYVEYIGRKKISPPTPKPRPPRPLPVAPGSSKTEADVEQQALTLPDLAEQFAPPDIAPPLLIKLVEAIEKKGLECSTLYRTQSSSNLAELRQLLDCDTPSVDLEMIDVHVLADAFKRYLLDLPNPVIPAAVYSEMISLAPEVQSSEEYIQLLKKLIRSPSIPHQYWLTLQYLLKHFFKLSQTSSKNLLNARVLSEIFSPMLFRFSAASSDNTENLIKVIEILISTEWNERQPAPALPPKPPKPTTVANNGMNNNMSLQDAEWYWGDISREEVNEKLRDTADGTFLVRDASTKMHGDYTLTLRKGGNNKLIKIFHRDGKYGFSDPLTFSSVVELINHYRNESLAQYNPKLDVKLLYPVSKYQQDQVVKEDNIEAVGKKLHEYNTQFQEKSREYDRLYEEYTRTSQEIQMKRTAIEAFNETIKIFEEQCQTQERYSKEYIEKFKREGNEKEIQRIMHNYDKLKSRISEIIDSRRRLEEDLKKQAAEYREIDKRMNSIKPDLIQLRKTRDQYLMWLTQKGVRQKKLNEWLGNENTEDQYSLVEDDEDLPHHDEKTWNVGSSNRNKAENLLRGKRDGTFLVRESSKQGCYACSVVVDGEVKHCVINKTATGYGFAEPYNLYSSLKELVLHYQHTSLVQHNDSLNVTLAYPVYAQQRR
Sequence of PI3K-gamma (P48736 whole entry, species assumed): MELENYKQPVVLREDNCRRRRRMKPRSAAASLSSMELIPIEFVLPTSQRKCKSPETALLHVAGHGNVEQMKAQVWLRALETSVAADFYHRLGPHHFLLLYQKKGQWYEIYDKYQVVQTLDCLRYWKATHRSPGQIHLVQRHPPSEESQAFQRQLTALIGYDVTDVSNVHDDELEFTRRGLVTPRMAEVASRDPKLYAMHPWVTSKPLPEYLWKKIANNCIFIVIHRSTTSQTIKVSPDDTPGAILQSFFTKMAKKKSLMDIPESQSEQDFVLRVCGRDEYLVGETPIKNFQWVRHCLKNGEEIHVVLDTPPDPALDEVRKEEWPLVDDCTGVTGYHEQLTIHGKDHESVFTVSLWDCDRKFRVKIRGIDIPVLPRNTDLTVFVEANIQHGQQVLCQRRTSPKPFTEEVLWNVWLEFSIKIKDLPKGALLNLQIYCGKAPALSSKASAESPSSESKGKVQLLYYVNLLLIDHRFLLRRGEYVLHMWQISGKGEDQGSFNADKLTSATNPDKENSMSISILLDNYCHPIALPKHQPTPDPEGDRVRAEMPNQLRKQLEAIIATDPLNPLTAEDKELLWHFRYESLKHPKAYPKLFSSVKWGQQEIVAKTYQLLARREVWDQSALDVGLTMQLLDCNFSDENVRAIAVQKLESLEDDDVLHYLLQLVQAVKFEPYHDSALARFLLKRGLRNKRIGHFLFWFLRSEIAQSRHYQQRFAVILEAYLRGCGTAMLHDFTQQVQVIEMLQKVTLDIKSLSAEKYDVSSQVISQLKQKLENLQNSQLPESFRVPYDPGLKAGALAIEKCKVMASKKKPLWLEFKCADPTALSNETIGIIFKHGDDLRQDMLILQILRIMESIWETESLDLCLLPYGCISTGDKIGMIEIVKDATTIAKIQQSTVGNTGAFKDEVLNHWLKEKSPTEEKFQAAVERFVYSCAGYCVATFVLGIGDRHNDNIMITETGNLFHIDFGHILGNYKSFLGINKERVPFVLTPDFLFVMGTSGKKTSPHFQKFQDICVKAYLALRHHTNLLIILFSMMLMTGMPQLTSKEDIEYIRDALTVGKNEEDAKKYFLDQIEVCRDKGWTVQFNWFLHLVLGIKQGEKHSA

The term pIC50 denotes the IC50 on a negative log10 scale, so that one unit is a factor of ten. For the compound `CNC(=O)Nc1ccc2c(c1)C(=O)/C(=C/c1c(CN3CCN(C)CC3)[nH]c3ccc(OC)cc13)O2` [Compound 615, 1-[(2Z)-2-({5-methoxy-2-[(4-methylpiperazin-1-yl)methyl]-1H-indol-3-yl}methylidene)-3-oxo-2,3-dihydro-1-benzofuran-5-yl]-3-methylurea], the negative-log IC50 (pIC50) at PI3K-alpha is 8.02; against PI3K-gamma, 6.86.

With `COc1ccc2c(c1)c(C=C1Oc3c(ccc(O)c3O)C1=O)c(C)n2CCCCl` [Example 124, 2-{[1-(3-chloropropyl)-5-methoxy-2-methyl-1H-indol-3-yl]methylene}-6,7-dihydroxy-1-benzofuran-3(2H)-one], the negative-log IC50 (pIC50) was 7.19 on PI3K-alpha and 5.91 at PI3K-gamma.

In the case of `CNCCNC(=O)Nc1ccc2c(c1)C(=O)/C(=C/c1c(C3CCCCC3)n(CCN3CCN(C)CC3)c3ccc(OC)cc13)O2` [Compound 584, 1-[(2Z)-2-({2-cyclohexyl-5-methoxy-1-[2-(4-methylpiperazin-1-yl)ethyl]-1H-indol-3-yl}methylene)-3-oxo-2,3-dihydro-1-benzofuran-5-yl]-3-[2-(methylamino)ethyl]urea], the negative logarithm of the IC50 (pIC50) on PI3K-alpha was 8.96; on PI3K-gamma, 7.59.

For the compound `COc1ccc(NC(=O)Nc2ccc3c(c2)C(=O)/C(=C/c2cn(CCCN(C)C)c4ccc(OC)cc24)O3)cc1` [Compound 540, 1-[(2Z)-2-({1-[3-(dimethylamino)propyl]-5-methoxy-1H-indol-3-yl}methylene)-3-oxo-2,3-dihydro-1-benzofuran-5-yl]-3-(4-methoxyphenyl)urea], the negative logarithm of the IC50 (pIC50) at PI3K-alpha was 6.99; against PI3K-gamma it was 5.81.

`COc1ccc2c(c1)c(C=C1Oc3cccc(O)c3C1=O)c(C)n2CCCCl` [Example 125, 2-{[1-(3-chloropropyl)-5-methoxy-2-methyl-1H-indol-3-yl]methylene}-4-hydroxy-1-benzofuran-3(2H)-one]: the pIC50 on PI3K-alpha was 6.42; against PI3K-gamma, 6.03.

With `CCCc1noc(-c2[nH]c3ccc(OC)cc3c2/C=C2\Oc3ccc(NC(=O)NC)cc3C2=O)n1` [Compound 593, 1-[(2Z)-2-{[5-methoxy-2-(3-propyl-1,2,4-oxadiazol-5-yl)-1H-indol-3-yl]methylene}-3-oxo-2,3-dihydro-1-benzofuran-5-yl]-3-methylurea], the negative logarithm of the IC50 (pIC50) at PI3K-alpha was 7.90; against PI3K-gamma, 6.11.

`CCc1c(/C=C2\Oc3cc(O)cc(O)c3C2=O)c2cc(OC)ccc2n1CCCC#N` [Compound 493, 4-{3-[(Z)-(4,6-dihydroxy-3-oxo-1-benzofuran-2(3H)-ylidene)methyl]-2-ethyl-5-methoxy-1H-indol-1-yl}butanenitrile]: the pIC50 at PI3K-alpha was 8.52; on PI3K-gamma it was 7.81.

Take `COc1ccc2c(c1)c(/C=C1\Oc3ccc(NC(=O)NCCN)cc3C1=O)c(-c1ccccc1)n2CCN1CCN(C)CC1` [Compound 576, 1-(2-aminoethyl)-3-[(2Z)-2-({5-methoxy-1-[2-(4-methylpiperazin-1-yl)ethyl]-2-phenyl-1H-indol-3-yl}methylene)-3-oxo-2,3-dihydro-1-benzofuran-5-yl]urea]: the pIC50 on PI3K-alpha is 9.22; against PI3K-gamma it was 7.56.

In the case of `COc1ccc2[nH]cc(C=C3Oc4c(O)cccc4C3=O)c2c1` [Compound 482, 7-hydroxy-2-[(5-methoxy-1H-indol-3-yl)methylene]-1-benzofuran-3(2H)-one], the pIC50 on PI3K-alpha and on PI3K-gamma was below 5.00 each time.

Take `COc1ccc2c(c1)c(/C=C1\Oc3ccc(O)cc3C1=O)c(C)n2CCN1CCN(C)CC1` [Compound 519]: the pIC50 was 6.56 at PI3K-alpha and 5.22 against PI3K-gamma.

On to `Cn1c(-c2ccccc2)c(/C=C2\Oc3cc(O)cc(O)c3C2=O)c2c([N+](=O)[O-])cccc21` [Compound 499, (2Z)-4,6-dihydroxy-2-[(1-methyl-4-nitro-2-phenyl-1H-indol-3-yl)methylene]-1-benzofuran-3(2H)-one], for which the negative-log IC50 (pIC50) on PI3K-alpha was 6.47; against PI3K-gamma, 5.45.

With `Cn1cc(/C=C2\Oc3cc(O)cc(O)c3C2=O)c2c(N3CCOCC3)cccc21` [Compound 496, (2Z)-4,6-dihydroxy-2-[(1-methyl-4-morpholin-4-yl-1H-indol-3-yl)methylene]-1-benzofuran-3(2H)-one], the negative logarithm of the IC50 (pIC50) at PI3K-alpha was 5.98; against PI3K-gamma it was 5.32.

For `CCc1cc(OC)cc2c(/C=C3\Oc4cc(O)ccc4C3=O)cn(CCCC#N)c12` [Compound 474, 4-{7-ethyl-3-[(Z)-(6-hydroxy-3-oxo-1-benzofuran-2(3H)-ylidene)methyl]-5-methoxy-1H-indol-1-yl}butanenitrile], the negative-log IC50 (pIC50) at PI3K-alpha is 6.61; against PI3K-gamma, 5.86.

For the compound `CNC(=O)Nc1ccc2c(c1)C(=O)/C(=C/c1c(C)n(CCCN3CCCC3)c3ccc(OC)cc13)O2` [Compound 597, 1-[(2Z)-2-{[5-methoxy-2-methyl-1-(3-pyrrolidin-1-ylpropyl)-1H-indol-3-yl]methylidene}-3-oxo-2,3-dihydro-1-benzofuran-5-yl]-3-methylurea], the pIC50 was 8.46 at PI3K-alpha and 6.35 against PI3K-gamma.

In the case of `COc1ccc2c(c1)c(C=C1Oc3cccc(O)c3C1=O)c(C)n2CCCCN1CCOCC1` [Example 136, 4-hydroxy-2-{[5-methoxy-2-methyl-1-(4-morpholin-4-ylbutyl)-1H-indol-3-yl]methylene}-1-benzofuran-3(2H)-one], the pIC50 is 6.63 on PI3K-alpha and 5.61 at PI3K-gamma.

`COc1ccc2c(c1)c(/C=C1\Oc3ccc(CO)cc3C1=O)cn2CCN1CCN(C)CC1` [Compound 541, (2Z)-5-(hydroxymethyl)-2-({5-methoxy-1-[2-(4-methylpiperazin-1-yl)ethyl]-1Hindol-3-yl}methylene)-1-benzofuran-3(2H)-one]: the negative-log IC50 (pIC50) at PI3K-alpha was 5.86; on PI3K-gamma, 5.04.

Turning to `COc1ccc2c(c1)c(/C=C1\Oc3ccc(NC(=O)NCCCN(C)C)cc3C1=O)cn2CCN1CCN(C)CC1` [Compound 569, 1-[3-(dimethylamino)propyl]-3-[(2Z)-2-({5-methoxy-1-[2-(4-methylpiperazin-1-yl)ethyl]-1H-indol-3-yl}methylene)-3-oxo-2,3-dihydro-1-benzofuran-5-yl]urea], the pIC50 on PI3K-alpha is 6.62; on PI3K-gamma it was 5.19.

With `COc1ccc2c(c1)c(/C=C1\Oc3cc(O)cc(O)c3C1=O)cn2CCCC#N` [Compound 510, 4-{3-[(Z)-(4,6-dihydroxy-3-oxo-1-benzofuran-2(3H)-ylidene)methyl]-5-methoxy-1Hindol-1-yl}butanenitrile], the negative logarithm of the IC50 (pIC50) on PI3K-alpha was 8.10; against PI3K-gamma, 7.25.

With `CNC(=O)Nc1ccc2c(c1)C(=O)/C(=C/c1c(C(=O)NC)[nH]c3ccc(OC)cc13)O2` [Compound 603, 5-methoxy-N-methyl-3-[(Z)-{5-[(methylcarbamoyl)amino]-3-oxo-1-benzofuran-2(3H)-ylidene}methyl]-1H-indole-2-carboxamide], the pIC50 on PI3K-alpha was 8.19; at PI3K-gamma it was 6.99.

For `Cn1cc(C=C2Oc3cc(O)cc(O)c3C2=O)c2c(-c3ccccc3)cccc21` (single isomer, unassigned) [Compound 544, (2E)-4,6-dihydroxy-2-[(1-methyl-4-phenyl-1H-indol-3-yl)methylene]-1-benzofuran-3(2H)-one-(2Z)-4,6-dihydroxy-2-[(1-methyl-4-phenyl-1H-indol-3-yl)methylene]-1-benzofuran-3(2H)-one (1:1)], the values for the negative-log IC50 (pIC50) on PI3K-alpha and at PI3K-gamma were 6.58 and 5.67, respectively.

As to `CNC(=O)Nc1ccc2c(c1)C(=O)/C(=C/c1c(CN(C)CCN(C)C)[nH]c3ccc(OC)cc13)O2` [Compound 613, 1-[(2Z)-2-{[2-({[2-(dimethylamino)ethyl](methyl)amino}methyl)-5-methoxy-1Hindol-3-yl]methylidene}-3-oxo-2,3-dihydro-1-benzofuran-5-yl]-3-methylurea], the negative-log IC50 (pIC50) on PI3K-alpha was 7.90; against PI3K-gamma, 6.81.

In the case of `CNC(=O)Nc1ccc2c(c1)C(=O)/C(=C/c1c(C)n(CCN3CCN(C)CC3)c3ccc(OC)cc13)O2` [Compound 556, 1-[(2Z)-2-({5-methoxy-2-methyl-1-[2-(4-methylpiperazin-1-yl)ethyl]-1H-indol-3-yl}methylene)-3-oxo-2,3-dihydro-1-benzofuran-5-yl]-3-methylurea], the pIC50 at PI3K-alpha is 8.67; against PI3K-gamma, 6.08.

For `Cn1cc(/C=C2/Oc3cc(O)cc(O)c3C2=O)c2c(-c3ccccc3)cccc21` [Compound 557, (2E)-4,6-dihydroxy-2-[(1-methyl-4-phenyl-1H-indol-3-yl)methylene]-1-benzofuran-3(2H)-one], the results for the pIC50 on PI3K-alpha and against PI3K-gamma were 5.92 and below 5.00, respectively.

The compound `Cn1cc(/C=C2\Oc3cc(O)cc(O)c3C2=O)c2ccccc21` [Example 16, (2Z)-4,6-dihydroxy-2-[(1-methyl-1H-indol-3-yl)methylene]-1-benzofuran-3(2H)-one] had a pIC50 against PI3K-gamma of 5.16.

For `O=C1/C(=C/c2c(-c3ccc(F)cc3)[nH]c3ccccc23)Oc2ccccc21` [Example 19, (2Z)-2-{[2-(4-fluorophenyl)-1H-indol-3-yl]methylene}-1-benzofuran-3(2H)-one], the negative logarithm of the IC50 (pIC50) at PI3K-alpha is 5.70.

As to `O=C1/C(=C/c2c(-c3ccc(Cl)cc3)[nH]c3ccccc23)Oc2ccccc21` [Example 17, (2Z)-2-{[2-(4-chlorophenyl)-1H-indol-3-yl]methylene}-1-benzofuran-3(2H)-one], at PI3K-alpha, the pIC50 was 5.60.

These data come from US20090311217A1, “3-SUBSTITUTED-1H-INDOLE COMPOUNDS, THEIR USE AS MTOR KINASE AND PI3 KINASE INHIBITORS, AND THEIR SYNTHESES” (priority 2008, published 2009).
